The record followed here is the Kinase Knowledgebase extract (Sharma et al. 2016).

For the assay, the target named is MAPK14 (human) (UniProt Q16539). Description: Inhibition of MAPK14 Kinase Activity.
MAPK14 (human), sequence (Q16539 whole entry, looked up): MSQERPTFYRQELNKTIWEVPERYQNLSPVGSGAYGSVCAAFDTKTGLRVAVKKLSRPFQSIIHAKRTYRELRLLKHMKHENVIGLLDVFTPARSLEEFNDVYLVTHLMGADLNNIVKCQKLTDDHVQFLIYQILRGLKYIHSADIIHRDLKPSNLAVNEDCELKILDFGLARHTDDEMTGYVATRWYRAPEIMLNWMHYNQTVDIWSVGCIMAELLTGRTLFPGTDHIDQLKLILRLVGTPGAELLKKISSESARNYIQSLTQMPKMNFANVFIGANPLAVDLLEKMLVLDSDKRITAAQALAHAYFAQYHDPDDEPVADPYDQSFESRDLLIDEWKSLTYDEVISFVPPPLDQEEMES
In turn, `O=C1SCC(Cc2ccc(F)cc2F)CN1c1c(Cl)cc(O)cc1Cl` (stereo not drawn) had an IC50 of no more than 10 µM. Next, `CNc1ccc(Cl)c(N2CC(Sc3ccc(F)cc3F)CCC2=O)c1Cl` (stereo not drawn): no more than 10 µM; `C[C@@H]1C[C@H](Cc2ccc(F)cc2F)CN(c2c(Cl)cc(N)cc2Cl)C1=O`: no more than 10 µM; `O=C1SCC(Cc2cc(Cl)cc(Cl)c2)CN1c1c(Cl)cccc1Cl` (stereo not drawn): no more than 10 µM. Next, `CN1CC(Cc2ccc(F)cc2F)CN(c2c(Cl)ccc(O)c2Cl)C1=O` (stereo not drawn): no more than 10 µM. Next, `O=C1CCC(Cc2ccc(F)cc2)CN1c1c(Cl)cccc1Cl` (stereo not drawn): no more than 10 µM; `COC(=O)Nc1cc(Cl)c(N2CC(Cc3ccc(F)cc3F)CCC2=O)c(Cl)c1` (stereo not drawn): no more than 10 µM; `O=C1CCC(Cc2ccccc2F)CN1c1c(Cl)cncc1Cl` (stereo not drawn): no more than 10 µM.

Compound `Nc1ccc(CC2CCC(=O)N(c3c(Cl)cccc3Cl)C2)cc1` (stereo not drawn) gave an IC50 of no more than 10 µM. `COc1ccc(CC2CCC(=O)N(c3c(Cl)ccnc3Cl)C2)cc1` (stereo not drawn) yielded an IC50 of no more than 10 µM. In turn, `Cc1cc(C#CCCN2CCOCC2)cc(C)c1N1CC(Cc2ccc(F)cc2F)CCC1=O` (stereo not drawn) came in with an IC50 of no more than 10 µM.

In the case of `COC(=O)c1ccccc1CC1CCC(=O)N(c2c(C)cccc2C)C1` (stereo not drawn), the IC50 is no more than 10 µM.

`O=C1CCC(Sc2ccc(F)cc2F)CN1c1c(Cl)csc1Cl` (stereo not drawn) came in with an IC50 of no more than 10 µM. Next, `O=C1CSC(Cc2ccc(F)cc2F)CN1c1c(Cl)ccc(CO)c1Cl` (stereo not drawn): no more than 10 µM. Next, `CNc1ccc(Cl)c(N2CC(Cc3ccc(F)cc3F)CNC2=O)c1Cl` (stereo not drawn): no more than 10 µM. For the compound `Nc1cnc(Cl)c(N2CC(Sc3ccc(F)cc3F)CCC2=O)c1Cl` (stereo not drawn), the IC50 is no more than 10 µM. In turn, `O=C1COC(Cc2ccc(F)cc2)CN1c1c(Cl)cccc1Cl` (stereo not drawn) came in with an IC50 of no more than 10 µM.

For `CC(=O)Nc1sc(Cl)c(N2CC(Oc3ccc(F)cc3F)CCC2=O)c1Cl` (stereo not drawn), the IC50 was no more than 10 µM.

For `CNc1cc(Cl)c(N2CC(Cc3ccc(F)cc3F)CCC2=O)c(Cl)c1` (stereo not drawn), the IC50 was no more than 10 µM. To `Cc1ccc(OC2CCC(=O)N(c3c(Cl)csc3Cl)C2)c(C)c1` (stereo not drawn) belongs no more than 10 µM; to `Cc1ccc(OC2CCC(=O)N(C3C(Cl)CCCC3Cl)C2)c(C)c1` (stereo not drawn), no more than 10 µM; to `O=C1CCC(Oc2ccc(F)cc2F)CN1c1c(Cl)ccc(O)c1Cl` (stereo not drawn), no more than 10 µM.

Take `CC(=O)Nc1sc(Cl)c(N2CC(Cc3ccc(F)cc3F)CCC2=O)c1Cl` (stereo not drawn): the IC50 was no more than 10 µM. Take `CCOC(=O)COc1ccccc1CC1CCC(=O)N(c2c(C)cccc2C)C1` (stereo not drawn): the IC50 was no more than 10 µM.

`Cc1ccccc1SC1CCC(=O)N(c2c(Cl)csc2Cl)C1` (stereo not drawn) registered an IC50 of no more than 10 µM. `CNc1cc(Cl)c(N2CC(Cc3ccc(F)cc3F)CSC2=O)c(Cl)c1` (stereo not drawn) came in with an IC50 of no more than 10 µM. To `CC(C)(C)OC(=O)N(CCN)c1cc(Cl)c(N2CC(Cc3ccc(F)cc3F)CCC2=O)c(Cl)c1` (stereo not drawn) belongs no more than 10 µM; to `CS(=O)(=O)NCCNc1cc(Cl)c(N2CC(Cc3ccc(F)cc3F)CCC2=O)c(Cl)c1` (stereo not drawn), no more than 10 µM. The compound `O=C1CSC(Cc2ccc3ccccc3c2)CN1c1c(Cl)cccc1Cl` (stereo not drawn) returned an IC50 of no more than 10 µM.

As for `O=C(O)/C=C/c1ccccc1CC1CCC(=O)N(c2c(Cl)cccc2Cl)C1` (stereo not drawn), the IC50 was no more than 10 µM.

`CC(=O)Nc1ccc(Cl)c(N2CC(Cc3ccc(F)cc3F)COC2=O)c1Cl` (stereo not drawn) had an IC50 of no more than 10 µM. To `CC(=O)Nc1ccc(Cl)c(N2CC(Cc3ccc(F)cc3F)CN(C)C2=O)c1Cl` (stereo not drawn) belongs no more than 10 µM; to `CC(=O)Nc1cnc(Cl)c(N2CC(Cc3ccc(F)cc3F)CCC2=O)c1Cl` (stereo not drawn), no more than 10 µM; to `NC1CC(Cl)C(N2CC(Cc3ccc(F)cc3F)CCC2=O)C(Cl)C1` (stereo not drawn), no more than 10 µM. Next, `CC(=O)Nc1cc(Cl)c(N2CC(Cc3ccc(F)cc3F)CN(C)C2=O)c(Cl)c1` (stereo not drawn): no more than 10 µM; `CC(C)(C)OC(=O)N(CCNC(N)=O)c1cc(Cl)c(N2CC(Cc3ccc(F)cc3F)CCC2=O)c(Cl)c1` (stereo not drawn): no more than 10 µM; `O=C1CCC(Cc2ccc(F)cc2F)CN1c1cc(NCCO)ccc1Cl` (stereo not drawn): no more than 10 µM. Next, `Cc1cc(CCCCN(C)C)cc(C)c1N1CC(Cc2ccc(F)cc2F)CCC1=O` (stereo not drawn): no more than 10 µM; `Cc1ccccc1SC1CCC(=O)N(C2C(Cl)CCCC2Cl)C1` (stereo not drawn): no more than 10 µM. `O=C1CCC(Cc2ccc(F)cc2F)CN1c1c(Cl)cc(Br)cc1Cl` (stereo not drawn) gave an IC50 of no more than 10 µM. To `Cc1ccc(SC2CCC(=O)N(c3c(Cl)cccc3Cl)C2)cc1` (stereo not drawn) belongs no more than 10 µM; to `O=C1CCC(Oc2ccc(Cl)cc2Cl)CN1C1C(Cl)CCCC1Cl` (stereo not drawn), no more than 10 µM. To `Cc1cccc(C)c1N1CC(CCCc2ccccc2)CCC1=O` (stereo not drawn) belongs no more than 10 µM. To `Cc1ccccc1CC1CCC(=O)N(c2c(Cl)cccc2Cl)C1` (stereo not drawn) belongs no more than 10 µM. The compound `CCOC(=O)CN(C(=O)OC(C)(C)C)c1cc(Cl)c(N2CC(Cc3ccc(F)cc3F)CCC2=O)c(Cl)c1` (stereo not drawn) returned an IC50 of no more than 10 µM.

For the compound `Cc1ccccc1OC1CCC(=O)N(c2c(Cl)csc2Cl)C1` (stereo not drawn), the IC50 is no more than 10 µM. `Cc1ccc(CC2CSC(=O)N(c3c(Cl)cccc3Cl)C2)cc1` (stereo not drawn) showed an IC50 of no more than 10 µM. For the compound `O=C1CCC(Sc2ccccc2Cl)CN1c1c(Cl)ccnc1Cl` (stereo not drawn), the IC50 is no more than 10 µM. `O=C1CCC(Sc2ccc(Cl)cc2)CN1c1c(Cl)ccnc1Cl` (stereo not drawn) registered an IC50 of no more than 10 µM. Next, `O=C1CCC(Cc2ccccc2)CN1c1c(F)cccc1F` (stereo not drawn): no more than 10 µM; `O=C1CCC(Oc2ccc(Cl)cc2)CN1C1C(Cl)CCCC1Cl` (stereo not drawn): no more than 10 µM; `O=C1CCC(Oc2ccc(F)cc2F)CN1C1C(Cl)CCC(O)C1Cl` (stereo not drawn): no more than 10 µM. On to `CN1CCN(CCNc2cc(Cl)c(N3CC(Cc4ccc(F)cc4F)CCC3=O)c(Cl)c2)CC1` (stereo not drawn), for which the IC50 was no more than 10 µM. To `Nc1sc(Cl)c(N2CC(Oc3ccc(F)cc3F)CCC2=O)c1Cl` (stereo not drawn) belongs no more than 10 µM; to `O=C1CCC(Cc2ccc(F)cc2F)CN1c1c(Cl)ncc(O)c1Cl` (stereo not drawn), no more than 10 µM; to `COc1ccc(OC2CCC(=O)N(c3c(Cl)cccc3Cl)C2)cc1` (stereo not drawn), no more than 10 µM.

`O=C1CCC(Oc2ccc(Cl)cc2)CN1c1c(Cl)ccnc1Cl` (stereo not drawn) gave an IC50 of no more than 10 µM. `O=C1CCC(Oc2cc(F)cc(F)c2)CN1c1c(Cl)csc1Cl` (stereo not drawn) registered an IC50 of no more than 10 µM. Next, `CC(C)(C)OC(=O)N(CCO)c1cc(Cl)c(N2CC(Cc3ccc(F)cc3F)CCC2=O)c(Cl)c1` (stereo not drawn): no more than 10 µM.

Consider `CN1CC(Cc2ccc(F)cc2F)CN(c2c(Cl)cc(O)cc2Cl)C1=O` (stereo not drawn), for which the IC50 is no more than 10 µM. Take `O=C(Cc1ccccc1)Nc1cc(Cl)c(N2CC(Cc3ccc(F)cc3F)SCC2=O)c(Cl)c1` (stereo not drawn): the IC50 was no more than 10 µM. Compound `COc1ccc(CC2COC(=O)N(c3c(Cl)cccc3Cl)C2)cc1` (stereo not drawn) returned an IC50 of no more than 10 µM. To `O=C(Cc1ccccc1)Nc1sc(Cl)c(N2CC(Oc3ccc(F)cc3F)CCC2=O)c1Cl` (stereo not drawn) belongs no more than 10 µM; to `O=C(Cc1ccccc1)NC1CC(Cl)C(N2CC(Oc3ccc(F)cc3F)CCC2=O)C(Cl)C1` (stereo not drawn), no more than 10 µM; to `CNC(=O)c1cc(C)c(N2CC(Cc3ccc(F)cc3F)CCC2=O)c(C)c1` (stereo not drawn), no more than 10 µM. To `O=C1CCC(Oc2cc(Cl)cc(Cl)c2)CN1c1c(Cl)cncc1Cl` (stereo not drawn) belongs no more than 10 µM.

As to `O=C1CCC(Cc2ccc3ccccc3c2)CN1c1c(Cl)csc1Cl` (stereo not drawn), the IC50 is no more than 10 µM. To `O=C1SCC(Cc2ccccc2F)CN1c1c(Cl)cccc1Cl` (stereo not drawn) belongs no more than 10 µM; to `CN1CC(Cc2ccccc2)CN(c2c(Cl)cccc2Cl)C1=O` (stereo not drawn), no more than 10 µM. Compound `O=C(Cc1ccccc1)NC1CCC(Cl)C(N2CC(Oc3ccc(F)cc3F)CCC2=O)C1Cl` (stereo not drawn) returned an IC50 of no more than 10 µM. Next, `COc1ccccc1CC1CNC(=O)N(c2c(Cl)cccc2Cl)C1` (stereo not drawn): no more than 10 µM.

`CNC1CCC(Cl)C(N2CC(Sc3ccc(F)cc3F)CCC2=O)C1Cl` (stereo not drawn) came in with an IC50 of no more than 10 µM. Next, `O=C1CCC(CO)(Cc2ccc(F)cc2F)CN1c1c(Cl)cccc1Cl` (stereo not drawn): no more than 10 µM; `O=C1NCC(Cc2ccc(Cl)cc2)CN1c1c(Cl)cccc1Cl` (stereo not drawn): no more than 10 µM; `O=C1CCC(Cc2ccc(F)cc2F)CN1c1c(Cl)cc(C#CCO)cc1Cl` (stereo not drawn): no more than 10 µM.

On to `O=C1CCC(Cc2ccccc2Cl)CN1C1C(Cl)CCCC1Cl` (stereo not drawn), for which the IC50 was no more than 10 µM. Consider `O=C1CCC(Oc2ccc(Cl)cc2)CN1c1c(Cl)csc1Cl` (stereo not drawn), for which the half-inhibitory concentration (IC50) was no more than 10 µM. To `CCOC(=O)CCCNC(=O)c1cc(C)c(N2CC(Cc3ccc(F)cc3F)CCC2=O)c(C)c1` (stereo not drawn) belongs no more than 10 µM; to `O=C(Cc1ccccc1)Nc1cc(Cl)c(N2CC(Cc3ccc(F)cc3F)CSC2=O)c(Cl)c1` (stereo not drawn), no more than 10 µM; to `CC(=O)Nc1ncc(Cl)c(N2CC(Sc3ccc(F)cc3F)CCC2=O)c1Cl` (stereo not drawn), no more than 10 µM. As for `O=C1CCC(Sc2ccccc2Cl)CN1C1C(Cl)CCCC1Cl` (stereo not drawn), the IC50 is no more than 10 µM. For `O=C1CCC(Oc2ccc(F)cc2F)CN1c1c(Cl)ncc(CO)c1Cl` (stereo not drawn), the IC50 is no more than 10 µM. To `CNc1cc(Cl)c(N2CC(Cc3ccc(F)cc3F)COC2=O)c(Cl)c1` (stereo not drawn) belongs no more than 10 µM; to `O=C1OCC(Cc2ccc(Cl)cc2)CN1c1c(Cl)cccc1Cl` (stereo not drawn), no more than 10 µM. On to `O=C1CCC(Cc2cccc3ccccc23)CN1C1C(Cl)CCCC1Cl` (stereo not drawn), for which the IC50 was no more than 10 µM.

Turning to `CC(=O)Nc1ccc(Cl)c(N2CC(Sc3ccc(F)cc3F)CCC2=O)c1Cl` (stereo not drawn), the IC50 was no more than 10 µM.

`CC(=O)Nc1sc(Cl)c(N2CC(Sc3ccc(F)cc3F)CCC2=O)c1Cl` (stereo not drawn) returned an IC50 of no more than 10 µM. To `Cc1ccc(OC2CCC(=O)N(c3c(Cl)ccnc3Cl)C2)c(C)c1` (stereo not drawn) belongs no more than 10 µM; to `CC(=O)Nc1cc(Cl)c(N2CC(Cc3ccc(F)cc3F)CCC2=O)c(Cl)c1` (stereo not drawn), no more than 10 µM.

`Nc1cc(Cl)c(N2CC(C(=NO)c3ccc(F)cc3F)CCC2=O)c(Cl)c1` (stereo not drawn) had an IC50 of no more than 10 µM.

Take `O=C1CCC(Sc2ccc(F)cc2F)CN1c1c(Cl)sc(CO)c1Cl` (stereo not drawn): the IC50 is no more than 10 µM. Turning to `O=C1NCC(Cc2cccc3ccccc23)CN1c1c(Cl)cccc1Cl` (stereo not drawn), the IC50 is no more than 10 µM.

In turn, `O=C1CCC(Sc2ccc(F)cc2F)CN1c1c(Cl)cc(O)cc1Cl` (stereo not drawn) returned an IC50 of no more than 10 µM. For the compound `Cc1ccc(CC2CN(C)C(=O)N(c3c(Cl)cccc3Cl)C2)c(C)c1` (stereo not drawn), the IC50 was no more than 10 µM. Take `O=C1OCCN1c1cc(Cl)c(N2CC(Cc3ccc(F)cc3F)CCC2=O)c(Cl)c1` (stereo not drawn): the IC50 is no more than 10 µM. To `O=C(Cc1ccccc1)Nc1cnc(Cl)c(N2CC(Sc3ccc(F)cc3F)CCC2=O)c1Cl` (stereo not drawn) belongs no more than 10 µM; to `O=C1CCC(Oc2ccccc2F)CN1c1c(Cl)cncc1Cl` (stereo not drawn), no more than 20 µM; to `Cc1cc(C)cc(SC2CCC(=O)N(c3c(Cl)csc3Cl)C2)c1` (stereo not drawn), no more than 10 µM.

For orientation: IC50 means the concentration at which inhibition is half-maximal. A higher IC50 goes with weaker potency in that assay.
